{"source": "patent US20260262635A1", "about": "“BAR COMPOSITION HAVING ENHANCED ANTIMICROBIAL ACTIVITY” (Conopco, Inc., d/b/a UNILEVER, priority 2021, published 2026)", "system": "S. aureus ATCC 6538", "experiment": "Time-kill assay adapted from ASTM E2315-16, S. aureus", "format": "cell-based", "details": "S. aureus and E. coli, 30 seconds of contact", "procedure": "Aqueous slurries were prepared whereby gratings from the bars made in the Samples of Table I were mixed with water to form a test solution containing 10% by weight of the initial bar component. In the second method, raw bar components, as depicted in the Samples in Table II, were mixed with water to form a test solution containing a total of 10% raw bar component to simulate an aqueous slurry of a bar composition. For each sample, aqueous slurries were mixed at 50° C. to simulate customary consumer washing conditions.\nAs to the microbes, E. coli ATCC 10536 and S. aureus ATCC 6538 were used in this study to represent Gram negative and Gram positive bacteria, respectively. The bacteria were stored at −80° C. Fresh isolates were cultured twice on Tryptic Soy Agar plates for 24 hours at 37° C. before each experiment.\nTest solutions were prepared. In the first method and for the aqueous slurries made from the bar compositions described in Table I, a composition (typically containing up to 15% surfactant) was mixed with water to form a test solution containing 10% weight percent of the initial formulation. In the second method and for the raw ingredients combined in Table II, the same were mixed with water at levels that simulate a 10% dilution of the slurries. In each assessment, test solutions were heated and mixed at […]\nThe log reduction was calculated using the formula: […]"}
{"smiles": "CC(O)C(=O)O", "note": "(stereo not shown) [lactic acid, Lactic acid]", "values": [{"measurement": "antimicrobial reduction / efficacy (in words)", "result": "performed poorly against S. aureus"}]}
